Results published in patent US8748436B2, “Carboxylic acid derivatives having a 2,5,7-substituted oxazolopyrimidine ring” (Sanofi, priority 2010, dated 2014).

Target: T1, human Edg-1 receptor (Homo sapiens, UniProt P21453)
T1 construct: FLAG (N); expressed in transfected cells; membrane preparation
Assay: GTP-γ-S assay using human Edg-1 receptors (scintillation proximity assay, CHO Flp-In cell membrane preparation)
Format: biochemical
Settings: test compound at 10 μM; high control 10 μM S1P regarded as 100% activation; [35S]GTP-γ-S binding, triplicate; read-out: % Activation (Edg-1 receptor activation in percent of the activation by 10 μM S1P)
From the text: A) GTP-γ-S Assay Using Human Edg-1 Receptors
In order to determine the Edg-1 receptor activation by the compounds of the invention, a GTP-γ-S (guanosine 5′-[thio]triphosphate) assay for G-protein coupled receptor binding based on the scintillation proximity assay principle was used, employing a cell membrane preparation from a CHO Flp-In cell line which constitutively overexpresses the human Edg-1 receptor.
The Flp-In™ expression system (Invitrogen, cat. no. K6010-01) allows the generation of stable mammalian cell lines into which the gene of interest has been integrated through homologous recombination at a specific genomic location called Flp Recombination Target (FRT) site by means of a Flp recombinase encoded by the pOG44 expression plasmid. The integration of the pcDNA5/FRT expression construct into the Flp-In host cell line genome results in the transcription of the gene of interest. The stably transfected cells become hygromycin-resistant.
One day prior to transfection, 200 000 Flp-In-CHO cells were seeded in Ham F-12 medium (Invitrogen, cat. no. 31765) supplemented with 10% fetal calf serum (FCS; Perbio Science, cat. no. SH30068.03) in a 6-well plate and incubated at 37° C./5% CO2 overnight. Using the FuGENE® 6 transfection reagent (Roche, cat. no. 11988387001), cells were cotransfected with the Flp recombinase expression plasmid pOG44 and a modified plasmid additionally containing the edg-1 gene (accession no. NM_001400) termed as pcDNA5-FRT-TO_nFLAG_DEST-EDG-1 with a 9:1 ratio. To obtain the modified pcDNA5-FRT-TO_nFLAG_DEST plasmid, the Invitrogen plasmid pcDNA5/FRT/TO (Invitrogen, cat. no. V6520-20) was adapted to the Gateway® (Invitrogen) cloning system by inserting a Gateway cassette containing attR recombination sites flanking a ccdB gene and a chloramphenicol-resistance gene (Gateway conversion system, Invitrogen, cat. no. 11828-029). In addition a FLAG tag epitope was added before the 5′ att recombination site to allow recombinant expression of N-terminally FLAG-tagged proteins.
For the transfection of one well, 1.08 μg of pOG44 and 0.12 μg of pcDNA5-FRT-TO_nFLAG_DEST-EDG-1 were mixed to 100 μl of serum-free Ham F-12 medium containing 6 μl of FuGENE® 6 transfection reagent. After 20 min of incubation, the transfection reagent/DNA complex was distributed dropwise on the cells. The cells were incubated for 24 h at 37° C. Then the cells from 3 wells were transferred to a T75 flask (Greiner Cellstar®, cat. no. 658175) containing Ham F-12 medium supplemented with 10% of FCS but without antibiotic and were incubated another 24 h. 48 h after transfection, the medium was replaced by selection medium (Ham F-12 supplemented with 10% of FCS and 300 μg/ml of hygromycin B (Invitrogen, cat. no. 10687-010)). The medium was exchanged every 2 to 3 days until a resistant population of cells had grown. […] After 2 weeks of selection, the cells were transferred into T175 flasks (Greiner Cellstar®, cat. no. 660175) and cultivated for batch production. Cells were harvested from the culture flasks by short treatment (2 to 5 min) with Accutase (PAA, cat. no. L11-007), resuspended in selection medium (see above) and centrifuged at 200×g for 5 min. The cells were resuspended in a mixture of 90% of FCS and 10% of dimethylsulfoxide and stored frozen in liquid nitrogen.
A membrane preparation was obtained by standard methods from the afore-described CHO Flp-In cell line constitutively overexpressing the human Edg-1 receptor. Briefly, the cryopreserved cells were taken in culture and grown until confluency in T175 cell culture flasks (Becton Dickinson, cat. no. 35 5001). […]

T1 sequence (P21453 whole entry): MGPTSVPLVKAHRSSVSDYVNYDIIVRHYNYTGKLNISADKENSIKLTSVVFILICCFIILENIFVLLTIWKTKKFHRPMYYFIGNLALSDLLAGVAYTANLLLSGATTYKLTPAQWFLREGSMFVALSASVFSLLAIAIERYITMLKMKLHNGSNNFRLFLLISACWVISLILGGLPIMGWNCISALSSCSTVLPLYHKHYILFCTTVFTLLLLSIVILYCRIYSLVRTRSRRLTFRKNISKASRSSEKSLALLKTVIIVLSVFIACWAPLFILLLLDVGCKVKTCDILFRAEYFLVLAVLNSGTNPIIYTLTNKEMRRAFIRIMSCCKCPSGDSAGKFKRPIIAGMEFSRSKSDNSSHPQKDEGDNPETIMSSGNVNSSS

SMILES	activation at 10 µM [%]
CCCOc1nc(Oc2cc(F)ccc2Cl)nc2oc(-c3cc(C)c(OCC(=O)O)c(C)c3)nc12 [Example 65, {4-[5-(2-chloro-5-fluorophenoxy)-7-propoxy-oxazolo[5,4-d]pyrimidin-2-yl]-2,6-dimethylphenoxy}-acetic acid]	105
CCCOc1nc(Oc2cccc(OC)c2)nc2oc(-c3cc(C)c(OCC(=O)O)c(C)c3)nc12 [Example 41, {4-[5-(3-methoxyphenoxy)-7-propoxy-oxazolo[5,4-d]pyrimidin-2-yl]-2,6-dimethylphenoxy}-acetic acid]	73
CCCOc1nc(OCCC(C)C)nc2oc(-c3cc(C)c(OCC(=O)O)c(C)c3)nc12 [Example 22, {2,6-dimethyl-4-[5-(3-methyl-butoxy)-7-propoxy-oxazolo[5,4-d]pyrimidin-2-yl]-phenoxy}-acetic acid]	92
CCCOc1nc(Oc2ccc(C(F)(F)F)cc2)nc2oc(-c3cc(C)c(OCC(=O)O)c(C)c3)nc12 [Example 68, {2,6-dimethyl-4-[7-propoxy-5-(4-trifluoromethylphenoxy)-oxazolo[5,4-d]pyrimidin-2-yl]-phenoxy}-acetic acid]	69
CCCOc1nc(Oc2cccc(C)c2)nc2oc(-c3cc(C)c(OCC(=O)O)c(C)c3)nc12 [Example 29, [2,6-dimethyl-4-(7-propoxy-5-(3-methylphenoxy)-oxazolo[5,4-d]pyrimidin-2-yl)-phenoxy]-acetic acid]	75
CCCOc1nc(OCC(C)C)nc2oc(-c3cc(C)c(OCC(=O)O)c(C)c3)nc12 [Example 12, [4-(5-isobutoxy-7-propoxy-oxazolo[5,4-d]pyrimidin-2-yl)-2,6-dimethyl-phenoxy]-acetic acid]	97
CCCOc1nc(Oc2ccc(F)c(C(F)(F)F)c2)nc2oc(-c3cc(C)c(OCC(=O)O)c(C)c3)nc12 [Example 74, {4-[5-(4-fluoro-3-trifluoromethylphenoxy)-7-propoxy-oxazolo[5,4-d]pyrimidin-2-yl]-2,6-dimethyl-phenoxy}-acetic acid]	61
CCCOc1nc(Oc2ccc(C)c(F)c2)nc2oc(-c3cc(C)c(OCC(=O)O)c(C)c3)nc12 [Example 6, {4-[5-(3-fluoro-4-methyl-phenoxy)-7-propoxy-oxazolo[5,4-d]pyrimidin-2-yl]-2,6-dimethyl-phenoxy}-acetic acid]	73
CCCOc1nc(Oc2ccccc2C)nc2oc(-c3cc(C)c(OCC(=O)O)c(C)c3)nc12 [Example 30, [2,6-dimethyl-4-(7-propoxy-5-(2-methylphenoxy)-oxazolo[5,4-d]pyrimidin-2-yl)-phenoxy]-acetic acid]	97
CCCOc1nc(Oc2cc(F)ccc2C)nc2oc(-c3cc(C)c(OCC(=O)O)c(C)c3)nc12 [Example 5, {4-[5-(5-fluoro-2-methyl-phenoxy)-7-propoxy-oxazolo[5,4-d]pyrimidin-2-yl]-2,6-dimethyl-phenoxy}-acetic acid]	91
CCCOc1nc(Oc2cccc(C(F)(F)F)c2F)nc2oc(-c3cc(C)c(OCC(=O)O)c(C)c3)nc12 [Example 72, {4-[5-(2-fluoro-3-trifluoromethylphenoxy)-7-propoxy-oxazolo[5,4-d]pyrimidin-2-yl]-2,6-dimethyl-phenoxy}-acetic acid]	48
CCCOc1nc(Oc2cccc(Cl)c2)nc2oc(-c3cc(C)c(OCC(=O)O)c(C)c3)nc12 [Example 10, {4-[5-(3-chloro-phenoxy)-7-propoxy-oxazolo[5,4-d]pyrimidin-2-yl]-2,6-dimethyl-phenoxy}-acetic acid]	86
CCCOc1nc(Oc2cc(F)cc(C(F)(F)F)c2)nc2oc(-c3cc(C)c(OCC(=O)O)c(C)c3)nc12 [Example 75, {4-[5-(3-fluoro-5-trifluoromethylphenoxy)-7-propoxy-oxazolo[5,4-d]pyrimidin-2-yl]-2,6-dimethyl-phenoxy}-acetic acid]	48
CCCOc1nc(OCC2CCCO2)nc2oc(-c3cc(C)c(OCC(=O)O)c(C)c3)nc12 (stereo not shown) [Example 19, {2,6-dimethyl-4-[7-propoxy-5-(tetrahydrofuran-2-ylmethoxy)-oxazolo[5,4-d]pyrimidin-2-yl]-phenoxy}-acetic acid]	84
CCCOc1nc(Oc2ccccc2Cl)nc2oc(-c3cc(C)c(OCC(=O)O)c(C)c3)nc12 [Example 47, {4-[5-(2-chlorophenoxy)-7-propoxy-oxazolo[5,4-d]pyrimidin-2-yl]-2,6-dimethylphenoxy}-acetic acid]	86
CCCOc1nc(Oc2ccc(F)cc2F)nc2oc(-c3cc(C)c(OCC(=O)O)c(C)c3)nc12 [Example 8, {4-[5-(2,4-difluoro-phenoxy)-7-propoxy-oxazolo[5,4-d]pyrimidin-2-yl]-2,6-dimethyl-phenoxy}-acetic acid]	84
CCCOc1nc(OCC2CCCCC2)nc2oc(-c3cc(C)c(OCC(=O)O)c(C)c3)nc12 [Example 11, [4-(5-cyclohexylmethoxy-7-propoxy-oxazolo[5,4-d]pyrimidin-2-yl)-2,6-dimethyl-phenoxy]-acetic acid]	76
CCCOc1nc(Oc2cc(C(F)(F)F)ccc2F)nc2oc(-c3cc(C)c(OCC(=O)O)c(C)c3)nc12 [Example 73, {4-[5-(2-fluoro-5-trifluoromethylphenoxy)-7-propoxy-oxazolo[5,4-d]pyrimidin-2-yl]-2,6-dimethylphenoxy}-acetic acid]	59
CCCOc1nc(Oc2cc(C)ccc2F)nc2oc(-c3cc(C)c(OCC(=O)O)c(C)c3)nc12 [Example 45, {4-[5-(2-fluoro-5-methylphenoxy)-7-propoxy-oxazolo[5,4-d]pyrimidin-2-yl]-2,6-dimethylphenoxy}-acetic acid]	67
CCCOc1nc(Oc2ccc(F)cc2Cl)nc2oc(-c3cc(C)c(OCC(=O)O)c(C)c3)nc12 [Example 61, {4-[5-(2-chloro-4-fluorophenoxy)-7-propoxy-oxazolo[5,4-d]pyrimidin-2-yl]-2,6-dimethyl-phenoxy}-acetic acid]	97
CCCOc1nc(Oc2cncc(F)c2)nc2oc(-c3cc(C)c(OCC(=O)O)c(C)c3)nc12 [Example 37, {4-[5-(5-fluoropyridin-3-yloxy)-7-propoxy-oxazolo[5,4-d]pyrimidin-2-yl]-2,6-dimethyl-phenoxy}-acetic acid]	117
CCCOc1nc(OCCC2CC2)nc2oc(-c3cc(C)c(OCC(=O)O)c(C)c3)nc12 [Example 23, {4-[5-(2-cyclopropyl-ethoxy)-7-propoxy-oxazolo[5,4-d]pyrimidin-2-yl]-2,6-dimethyl-phenoxy}-acetic acid]	98
CCCOc1nc(OC2CCC2)nc2oc(-c3cc(C)c(OCC(=O)O)c(C)c3)nc12 [Example 14, [4-(5-cyclobutoxy-7-propoxy-oxazolo[5,4-d]pyrimidin-2-yl)-2,6-dimethyl-phenoxy]-acetic acid]	88
CCCOc1nc(Oc2ccc3ncsc3c2)nc2oc(-c3cc(C)c(OCC(=O)O)c(C)c3)nc12 [Example 66, {4-[5-(benzothiazol-6-yloxy)-7-propoxy-oxazolo[5,4-d]pyrimidin-2-yl]-2,6-dimethylphenoxy}-acetic acid]	102
CCCOc1nc(Oc2ccsn2)nc2oc(-c3cc(C)c(OCC(=O)O)c(C)c3)nc12 [Example 27, {4-[5-(isothiazol-3-yloxy)-7-propoxy-oxazolo[5,4-d]pyrimidin-2-yl]-2,6-dimethylphenoxy}-acetic acid]	109
